Results on 45 compounds are retold here after ChEMBL document CHEMBL1141602, “Chemical library and structure-activity relationships of 11-demethyl-12-oxo calanolide A analogues as anti-HIV-1 agents” (J Med Chem, 2008).

The structures appear in SMILES notation. pEC50: −log10 of the molar value. ≈ marks a conversion by molar mass, not a printed value.

Data set [1] has as its system Human immunodeficiency virus 1. Description: Antiviral activity against HIV1 at 1.0 uM. The format is functional.
The subject of the next data set is HOS. Description: Toxicity in CD4 expressing HOS cells at 10 uM. The format is cell-based. Conditions: human.
Data set [2] is described as follows: Therapeutic index, ratio of IC50 for HOS cells to EC50 for human HIV1. The format is cell-based. Conditions: read-out: Ratio IC50/EC50.
Data set [3] relates to Human immunodeficiency virus 1. Description: Antiviral activity against HIV1. The format is functional, organism-based.
In data set [4] the test system is Mycobacterium tuberculosis. Description: Antimicrobial activity against Mycobacterium tuberculosis. The format is functional.

For `CC1CC(=O)c2c(c3c(c4c(-c5ccc([N+](=O)[O-])cc5)cc(=O)oc24)OC(C)(C)C=C3)O1` (stereo unspecified), the inhibition at 1 µM in data set [1] was found to be 51.9%.
In the case of `CCCCc1cc(=O)oc2c3c(c4c(c12)OC(c1ccccc1)C=C4)OC(C)CC3=O` (stereo unspecified), in data set [1], the inhibition at 1 µM was found to be 96.4%. For the same compound, in the data set with HOS, the Activity is 10%.
On to `CCCCC1C=Cc2c3c(c4oc(=O)cc(CCC(F)(F)F)c4c2O1)C(=O)CC(C)O3` (stereo unspecified), for which the inhibition at 1 µM in data set [1] stood at 53.6%.
With `CCCc1cc(=O)oc2c1c1c(c3occc(=O)c32)C=CC(C)(C)O1`, the inhibition at 1 µM in data set [1] was 64.9%.
In turn, `CCc1cc(=O)oc2c3c(c4c(c12)OC(c1ccccc1)C=C4)OC(C)CC3=O` (stereo unspecified) displayed an inhibition at 1 µM in data set [1] of 96.4%. For the same compound, the Activity in the data set on HOS is 10%.
As for `CCCc1cc(=O)oc2c3c(c4c(c12)OC(CCC)C=C4)OC(C)CC3=O` (stereo unspecified), in data set [1], the inhibition at 1 µM came out at 54.1%.
Consider `CCCCCC1CC(=O)c2c(c3c(c4c(CCC)cc(=O)oc24)OC(C)(C)C=C3)O1` (stereo unspecified), for which, in data set [1], the inhibition at 1 µM was determined as 46.4%. In addition, in the data set on HOS, the Activity was < 10%.
Compound `C/C=C/C1C=Cc2c3c(c4oc(=O)cc(CC)c4c2O1)C(=O)CC(C)O3` (stereo unspecified) displayed an inhibition at 1 µM in data set [1] of 56.4%.
Turning to `CCCC1C=Cc2c3c(c4oc(=O)cc(CC)c4c2O1)C(=O)CC(C)O3` (stereo unspecified), at 1 µM the inhibition in data set [1] was 97%. This compound also yielded an Activity with HOS of 10%.
For `CCCc1c(F)c(=O)oc2c3c(c4c(c12)OC(C)(C)C=C4)OC(C)CC3=O` (stereo unspecified), at 1 µM the inhibition in data set [1] was 45.3%. In the data set with HOS, this compound showed an Activity of 10%.
As for `CCc1c(F)c(=O)oc2c3c(c4c(c12)OC(C)(C)C=C4)OC(C)CC3=O` (stereo unspecified), the Activity with HOS was found to be 10%.
In data set [1], `CCCc1cc(=O)oc2c3c(c4c(c12)OC(C)(C)C=C4)OC(CCC)CC3=O` (stereo unspecified) gave an inhibition at 1 µM of 61.9%. For the same compound, the Activity in the data set with HOS is reported as < 10%. Moreover, the selectivity ratio in data set [2] was 102. Also, the pEC50 in data set [3] is 7.49.
In the case of `C/C=C/C1C=Cc2c3c(c4oc(=O)c(F)c(CC)c4c2O1)C(=O)CC(C)O3` (stereo unspecified), in data set [1], testing at 1 µM gave an inhibition of 46.2%.
In the case of `CCCc1cc(=O)oc2c3c(c4c(c12)OC(C)C=C4)OCC(C)C3=O` (stereo unspecified), the inhibition at 1 µM in data set [1] was found to be 62.4%. The Activity in the data set on HOS is recorded as 10%.
For `C/C=C/C1C=Cc2c3c(c4oc(=O)c(Cl)c(CCC)c4c2O1)C(=O)CC(C)O3` (stereo unspecified), the inhibition at 1 µM in data set [1] came to 57.3%.
Compound `CCCc1c(Cl)c(=O)oc2c3c(c4c(c12)OCC(C)C4OCC)OC(C)CC3=O` (stereo unspecified) came in with an inhibition at 1 µM in data set [1] of 51.7%.
As to `CCCCC1C=Cc2c3c(c4oc(=O)cc(CCC)c4c2O1)C(=O)C(C)CO3` (stereo unspecified), in data set [1], testing at 1 µM gave an inhibition of 35.2%. The Activity with HOS was < 10%.
For `CCCc1cc(=O)oc2c3c(c4c(c12)OC(C)(C)C=C4)OC(c1ccc(C)cc1)CC3=O` (stereo unspecified), the inhibition at 1 µM in data set [1] turned out to be 57%.
For the compound `CCCc1cc(=O)oc2c3c(c4c(c12)OC(c1ccccc1[N+](=O)[O-])C=C4)OC(C)CC3=O` (stereo unspecified), in data set [1], 1 µM produced 52.6% inhibition.
Regarding `CCc1c(F)c(=O)oc2c3c(c4c(c12)OC(C)C=C4)OC(C)CC3=O` (stereo unspecified), the inhibition at 1 µM in data set [1] is 39.5%.
In the case of `CCCc1c(Cl)c(=O)oc2c3c(c4c(c12)OC(c1ccccc1)C=C4)OC(C)CC3=O` (stereo unspecified), in data set [1], the inhibition at 1 µM is 96.3%. Besides, the Activity with HOS is recorded as > 80%.
On the same counts, the results for `CCCc1cc(=O)oc2c3c(c4c(c12)OC(C)(C)C=C4)OCC(C)C3=O` (stereo unspecified) are 38.9% and 10%.
In turn, `CCc1cc(=O)oc2c3c(c4c(c12)OC(C)(C)C=C4)OC(C)CC3=O` (stereo unspecified) showed an inhibition at 1 µM in data set [1] of 73.2%. The selectivity ratio in data set [2] is > 1000. Further, the negative-log EC50 (pEC50) in data set [3] was 6.57.
With `CCCc1cc(=O)oc2c3c(c4c(c12)OC(c1ccccc1)C=C4)OCC(C)C3=O` (stereo unspecified), the Activity with HOS was < 10%.
On to `CCCc1c(Cl)c(=O)oc2c3c(c4c(c12)OCC(C)=C4)OC(C)CC3=O` (stereo unspecified), for which the inhibition at 1 µM in data set [1] was 49.1%.
Regarding `C/C=C/C1C=Cc2c3c(c4oc(=O)cc(CCC)c4c2O1)C(=O)C(C)CO3` (stereo unspecified), the inhibition at 1 µM in data set [1] is 37.8%.
In data set [1], `CCCCc1cc(=O)oc2c3c(c4c(c12)OC(C)C=C4)OC(C)CC3=O` (stereo unspecified) gave an inhibition at 1 µM of 75.4%.
As for `CC1CC(=O)c2c(c3c(c4c5c(c(=O)oc24)CCCC5)OC(C)(C)C=C3)O1` (stereo unspecified), testing at 1 µM in data set [1] gave an inhibition of 67%.
In data set [1], `CCCCC1C=Cc2c3c(c4oc(=O)cc(CC)c4c2O1)C(=O)CC(C)O3` (stereo unspecified) came in with an inhibition at 1 µM of 96.7%. In the data set on HOS, this compound came in with an Activity of 10%.
For `CCCc1c(F)c(=O)oc2c3c(c4c(c12)OCC(C)=C4)OC(C)CC3=O` (stereo unspecified), in data set [1], the inhibition at 1 µM is 47.1%.
With `CCc1cc(=O)oc2c3c(c4c(c12)OC(C)C=C4)OC(C)CC3=O` (stereo unspecified), the inhibition at 1 µM in data set [1] was found to be 57.4%.
As for `CCCc1cc(=O)oc2c3c(c4c(c12)OC(c1ccccc1[N+](=O)[O-])CC4OCC)OC(C)CC3=O` (stereo unspecified), in data set [1], the inhibition at 1 µM amounted to 61%. Besides, the Activity in the data set on HOS is recorded as < 10%.
As for `CC1CC(=O)c2c(c3c(c4c(CN5CCN(C)CC5)cc(=O)oc24)OC(C)(C)C=C3)O1` (stereo unspecified), at 1 µM the inhibition in data set [1] was 48.3%.
`CC1CC(=O)c2c(c3c(c4c(CCC(F)(F)F)cc(=O)oc24)OC(c2ccccc2)C=C3)O1` (stereo unspecified) gave an inhibition at 1 µM in data set [1] of 47.6%.
Consider `COc1cc(-c2cc(=O)oc3c4c(c5c(c23)OC(C)(C)C=C5)OC(C)CC4=O)cc(OC)c1OC` (stereo unspecified), for which the inhibition at 1 µM in data set [1] came to 58%.
As to `CCCc1cc(=O)oc2c3c(c4c(c12)OC(C)(C)C=C4)OC(c1ccccc1)CC3=O` (stereo unspecified), the inhibition at 1 µM in data set [1] came to 62.7%. Besides, the Activity with HOS is given as < 10%.
Compound `CCCc1c(Cl)c(=O)oc2c3c(c4c(c12)OC(C)C=C4)OC(C)CC3=O` (stereo unspecified) displayed an inhibition at 1 µM in data set [1] of 55.7%.
As for `CCCc1c(Cl)c(=O)oc2c3c(c4c(c12)OC(C)(C)C=C4)OC(C)CC3=O` (stereo unspecified), 1 µM produced 68.1% inhibition in data set [1]. In addition, the selectivity ratio in data set [2] turned out to be 243. This compound showed a negative logarithm of the EC50 (pEC50) in data set [3] of 6.43.
Taken in the same sequence, the figures for `CCCc1cc(=O)oc2c3c(c4c(c12)OC(C)(C)C=C4)OC(CBr)CC3=O` (stereo unspecified) were 93.5%, > 10500 and 8.55.
In turn, `CCCc1cc(=O)oc2c3c(c4c(c12)OC(C)(C)C=C4)OC(C)CC3=O` (racemic) had an inhibition at 1 µM in data set [1] of 73.1%.
`CCCc1cc(=O)oc2c3c(c4c(c12)OC(C)(C)C=C4)OC(C)CC3O` (racemic): the pEC50 in data set [3] was 6.51.
As to `CCCc1cc(=O)oc2c3c(c4c(c12)OC(C)(C)C=C4)O[C@@H]1CCCC[C@@H]1C3=O` (relative stereo), the inhibition at 1 µM in data set [1] is 59.3%. For the same compound, the Activity in the data set with HOS is given as < 10%.
In data set [1], `CCCc1cc(=O)oc2c3c(c4c(c12)OC(C)(C)C=C4)O[C@H]1CCCC[C@@H]1C3=O` (relative stereo) displayed an inhibition at 1 µM of 40%. The Activity with HOS is recorded as < 10%.
With `CCCc1cc(=O)oc2c3c(c4c(c12)OC(C)(C)C=C4)OC(C)(C)CC3=O` [114, 10,10-DIMETHYL-11-DEMETHYL-12-OXO CALANOLIDE A], the inhibition at 1 µM in data set [1] stood at 68.3%. In addition, in data set [2], the selectivity ratio amounted to 47. This compound gave a negative-log EC50 (pEC50) in data set [3] of 6.19.
The compound `CCCc1cc(=O)oc2c3c(c4c(c12)OC(C)(C)C=C4)O[C@H](C)[C@@H](C)[C@@H]3O` [CALANOLIDE A] gave a pEC50 in data set [3] of 7.00. This compound gave an MIC in data set [4] of 3.13 µg/mL (≈ 8.45 µM).

The term inhibition denotes the change of the read-out against control, counted positive when it falls. In general, pEC50 refers to the EC50 on a negative log10 scale, so that one unit is a factor of ten. As a reminder, the MIC is the least concentration at which growth counts as inhibited. A higher MIC goes with weaker potency.
